Measured values taken from US20220281930A1, “COMPOSITIONS AND METHODS FOR THE TREATMENT OF PATHOLOGICAL PAIN AND ITCH” (DUKE UNIVERSITY, priority 2019, published 2022).

How the values were obtained:
KCC2 promoter = assay: KCC2-LUC luciferase primary screen in primary cortical neurons; format: cell-based, mouse; settings: rank score, 100 nM, 48 h
Experimental: Cytosine arabinoside ([…]) was added to cultures on the second day after seeding [2 d in vitro (DIV)] to inhibit the proliferation of non-neuronal cells. Cell suspension was plated at a density of 1×10^6 cells/ml onto 24-well tissue-culture dishes coated with poly-d-lysine.
LUC activity was then determined for each compound. Culture supernatant was removed and cells were lysed with 150 μl lysis buffer (Targeting Systems CA, USA cat. CLR1). LUC activity was measured with a RedLuciferase Assay kit (Targeting Systems cat. FLAR) according to the manufacturer's instructions. A Veritas microplate luminometer was used to measure luminescence; for each treatment triplicates of 40 μl cell lysates (from each 24-well tissue-culture dish) were used and 25 μl substrate was injected per well. […] Relative Light units (RLU) for each treatment was derived from Light Units (compound treatment)/vehicle treatment (0.5% DMSO).
The primary screen encompassed three levels of LUC measurements. […] Each compound was ranked based on composite scores from primary and secondary screening.

KCC2 mRNA = assay: Secondary screen: KCC2 RT-qPCR in primary mouse neurons; format: cell-based; settings: rank score
Experimental: (§1) The primary screen encompassed three levels of LUC measurements. The first level of screening yielded a total of 137 compounds with cut-off RLU>125% LUC activity. These 137 compounds were subject to second round of screening, which was carried out in duplicate independent assays to yield the top 103 compounds sorted for highest RLU. The 103 compounds were then subjected to a third round of screening carried out in duplicate independent assays to yield the top 40 compounds which were again ranked. The best 22 of these 40 compounds (ranked for highest RLU activity) were subjected to secondary screening: Cultured neurons were treated with the 22 compounds; RT-qPCR and Clomeleon imaging methodologies (Yeo et al., 2009, J Neurosci 29:14652-14662) were used to determine effects of compounds on KCC2 mRNA expression and [Cl—]i, respectively. Each compound was ranked based on composite scores from primary and secondary screening.
Total RNA was isolated from cultured cell samples using Directzol RNA miniprep kit (ZymoResearch). The protocol includes DNAse digestion to exclude genomic DNA from preparations. Total RNA (1 μg) was reverse transcribed using oligo primers (dT) and SuperScriptIII first-strand synthesis kit (Invitrogen). Gene expression was assessed by quantitative real-time PCR using 2×SYBR Green Master Mix (Qiagen) and a three-step cycling protocol (anneal at 60° C./elongate at 72° C., denature at 95° C.). Specificity of primers was verified by dissociation/melting curve for the amplicons when using SYBR Green as a detector. All reactions were performed in triplicates. The amount of target messenger RNA (mRNA) in the experimental group relative to that in the control was determined from the resulting fluorescence and threshold values (Ct) using the ΔΔCt method. βIII-tubulin was used as housekeeping gene.
oligodT-initiated reverse transcription of 1 μg total RNA, DNA-se treated, was subjected to RT-qPCR using primers specific for KCC2 for rat and KCC2 for human sequences, normalized for neuronal βIII-tubulin, as previously described (Yeo et al., 2009, J Neurosci 29:14652-14662). For cultured neurons, total RNA was extracted from pelleted cells, and for spinal cord tissue it was extracted from microdissected lumbar spinal cord dorsal horn.
(§2) To identify KCC2 gene expression enhancing compounds, cultured primary cortical neurons were cultured from KCC2-luciferase(LUC)-knockin (KCC2-LUCki) mice (Liedtke et al., 2013, Small 9:1066-1075; Yeo et al., 2013, Proc Natl Acad Sci USA 110:4315-4320) and used LUC metrics as readout for activity of the proximal KCC2 promoter (2.5 kB (Yeo et al., 2009, J Neurosci 29:14652-14662)), which drives LUC in this mouse transgenic line. A Z′ factor of 0.94 was obtained. This strategy will not select for long-range enhancers of KCC2 gene expression that act outside the 2.5 kB core KCC2 promoter. 1057 compounds, contained in two NCI libraries (FIG. 1), related to inhibition of growth of malignantly transformed cells were screened. Iterative screening followed by measurements of KCC2 mRNA (RT-qPCR) and intracellular chloride ([Cl—]i), using clomeleon chloride indicator protein (Kuner and Augustine, 2000, Neuron 27:447-459; Yeo et al., 2009, J Neurosci 29:14652-14662), led to decreasing numbers of confirmed and re-confirmed hits, and 4 “winner” compounds were selected (FIG. 1 and Table 3).

[1] = test system: intracellular chloride ([Cl—]i); assay: Secondary screen: Clomeleon chloride imaging in primary mouse neurons; format: cell-based; parameters: chloride reduction (%): concentration or dose not given beside the values; settings: for Clomeleon Score (duplicates): rank score; for chloride reduction (%): from the [Cl—]i pair of the same line; for chloride [Cl—]i mM: value after compound, control => treated
Experimental: as §1
(§3) Chloride imaging of primary cultured cortical neurons was conducted as previously described (Kuner and Augustine, 2000, Neuron 27:447-459; Liedtke et al., 2013, Small 9:1066-1075; Yeo et al., 2009, J Neurosci 29:14652-14662). A Clomeleon expression plasmid was transfected into primary cortical neurons by electroporation (Amaxa Nucleofector Device). Transfected neurons were verified by yellow fluorescent protein (YFP) fluorescence, and ratiometric images (excitation at λ=434 nm, dual emission at λ=485 and 535 nm; for resting chloride, six stable frames at […] were captured, which were averaged) were acquired using RATIOTOOL program. Calibration of Clomeleon signals (535 nm/485 nm emission ratio) was performed by using tributyltin-nigericin to establish a standard curve, which was then normalized for measured intraneuronal pH to take into account the pH sensitivity of Clomeleon.
as §2

KCC2 = assay: Composite score from primary and secondary screening; format: cell-based, mouse; settings: for Total Score / Aggregate Score: sum of the three scores; for Aggregate Score / Top two hits: Mechanistic Compounds
Experimental: as §1, §2

neuronal [Cl—]i = assay: Clomeleon chloride imaging in rat primary cortical neurons; format: cell-based; settings: VU0240551 2.5 μM add-on; both vehicle-treated and KP-treated
Experimental: as §3

nerve injury pain = assay: Nerve constriction injury (PSNL) pain model, mechanical withdrawal; format: in vivo, mouse; settings: day 7; 3 h, 4 h, 5 h after i.t injection
Experimental: For pain-related behavior, mechanical allodynia was assessed with von Frey filaments (Ugo Basile, Italy). The mice were placed on a 5×5-mm wire-mesh grid floor in individual compartments to avoid visual stimulation and allowed to adapt for 0.5 h prior to the von Frey test. The von Frey filament was then applied to the middle of the plantar surface of the hind paw with 5 g force. The withdrawal responses following the hind paw stimulation were measured at least three times, and the mechanical allodynia, which was defined as an increase in the number of withdrawal responses to the stimulation, was compared.
Thus, in vivo, KP functions as an analgesic when administered systemically in injury-related pain models.
Next, whether the analgesic effects of KP were mediated centrally at the spinal cord level was assessed.
Mechanical withdrawal was measured thresholds after nerve constriction injury (PSNL) (FIG. 12B and FIG. 12C). […] Thus, δ-cat(S276A) spinal transgenesis via AAV9 is sufficient to evoke analgesia after nerve constriction injury, to lesser degree also with δ-cat(WT). Importantly, δ-cat(S276A) spinal transgenesis was accompanied by increased expression of KCC2 in the SCDH. […] Moreover, our discovery points toward a genetically-encoded approach that can be developed for translation into clinical use as an alternative or complement to KP-related small molecules.

SMILES | Luciferase Score (triplicates) (KCC2 promoter; Natural Compounds) | chloride reduction (%) [1] [%] | chloride [Cl—]i mM [1] | Luciferase Score (triplicates) (KCC2 promoter; Mechanistic Compounds) | further results
CC(=O)C1CCCC(=O)C=CC(=O)O1 (stereo not drawn) [NSC180515, 2-Acetyl-2,3,4,5-tetrahydrooxonine-6,9-dione] | 4 | 32 | 68 => 22 mM | – | RT-QPCR Score (triplicates) (KCC2 mRNA; Natural Compounds): 1; Clomeleon Score (duplicates) ([1]; Natural Compounds): 1; Top 2 hits (KCC2; Natural Compounds): winner; Total Score (KCC2; Natural Compounds): 6
COc1cc2c3c(c4ccc(OC)c(OC)c4c2cc1OC)CN1CCC[C@H]1C3 [tylocrebrine] | 5 | 52 | 75 => 39 mM | – | RT-QPCR Score (triplicates) (KCC2 mRNA; Natural Compounds): 3; Clomeleon Score (duplicates) ([1]; Natural Compounds): 4; Total Score (KCC2; Natural Compounds): 12
CC(=O)N1CCN(c2ccc(OCC3COC(Cn4ccnc4)(c4ccc(Cl)cc4Cl)O3)cc2)CC1 (stereo not drawn) [ketoconazole] | 9 | – | – | – | –
N=C1N=CN=C2C([C@@H]3O[C@H](CO)[C@@H](O)[C@H]3O)=CN=C12 [9-Deazaadenosine] | – | 48.8 | 82 => 40 mM | 2 | RT-QPCR Score (triplicates) (KCC2 mRNA; Mechanistic Compounds): 4; Clomeleon Score (duplicates) ([1]; Mechanistic Compounds): 5; Aggregate Score (KCC2): 11
CC(=O)Nc1ccc(-c2nc3ccccc3s2)cc1 [NSC33006, N-[4-(1,3-benzothiazol-2-yl)phenyl]acetamide] | – | 37.8 | 74 => 28 mM | 2 | RT-QPCR Score (triplicates) (KCC2 mRNA; Mechanistic Compounds): 1; Clomeleon Score (duplicates) ([1]; Mechanistic Compounds): 2; Top two hits (KCC2): winner; Aggregate Score (KCC2): 5
CC(=O)/C(=C\c1cccc([N+](=O)[O-])c1)C(=O)Nc1ccccc1C [(2E)-N-(2-methylphenyl)-2-[(3-nitrophenyl)methylidene]-3-oxobutanamide] | – | – | – | 5 | –
COc1cc([C@@H]2c3cc4c(cc3[C@H](O[C@@H]3O[C@@H]5COC(c6ccccc6)O[C@H]5[C@H](O)[C@H]3O)[C@H]3COC(=O)[C@H]23)OCO4)cc(OC)c1OC (stereo partly drawn) [proresidor] | 9 | – | – | – | –
NC(=O)c1cn(C2OC(CO)C(O)C2O)c2ncnc(N)c12 (stereo not drawn) [Sauzivamycin] | – | – | – | 6 | –
CC(O)CCC(=O)c1ccoc1 (stereo not drawn) [4-Ipomeanol] | – | 43.2 | 74 => 32 mM | 3 | RT-QPCR Score (triplicates) (KCC2 mRNA; Mechanistic Compounds): 2; Clomeleon Score (duplicates) ([1]; Mechanistic Compounds): 3; Aggregate Score (KCC2): 8
CC1(C)C(O)OC(O)C1(C)C (stereo not drawn) [3,3,4,4-tetramethyloxolane-2,5-diol, 3,3,4,4-tetramethyl-oxolane-2,5-diol] | – | – | – | 6 | –
COc1cc2c(c(OC)c1OC)-c1ccc(OC)c(=O)cc1[C@@H](NC(C)=O)CC2 [colchicine] | 10 | – | – | – | –
Cc1csc(NC(=O)CSc2ccc(-c3ccccc3)nn2)n1 [VU0240551] | – | – | – | – | [Cl—]i with add-on KCC2-transport blocker (neuronal [Cl—]i): ≥ 120 mM; effect of i.t co-application with KP on KP analgesia (nerve injury pain): eliminates the central analgesic effects of KP
Cc1ccc(NC(=O)c2cccc([N+](=O)[O-])c2O)c(C)c1 [NSC79456, n-(2,4-Dimethylphenyl)-2-hydroxy-3-nitrobenzamide] | – | 32.4 | 74 => 24 mM | 1 | RT-QPCR Score (triplicates) (KCC2 mRNA; Mechanistic Compounds): 3; Clomeleon Score (duplicates) ([1]; Mechanistic Compounds): 1; Top two hits (KCC2): winner; Aggregate Score (KCC2): 5
COc1ccc(C[C@H]2NC[C@H](O)[C@H]2OC(C)=O)cc1 [anisomycine] | 3 | 57.3 | 75 => 43 mM | – | RT-QPCR Score (triplicates) (KCC2 mRNA; Natural Compounds): 4; Clomeleon Score (duplicates) ([1]; Natural Compounds): 6; Total Score (KCC2; Natural Compounds): 13
C[C@@]12C(=O)OC(=O)[C@]1(C)[C@H]1CC[C@@H]2O1 [cantharidine] | 6 | 48.5 | 68 => 33 mM | – | RT-QPCR Score (triplicates) (KCC2 mRNA; Natural Compounds): 6; Clomeleon Score (duplicates) ([1]; Natural Compounds): 3; Total Score (KCC2; Natural Compounds): 15
Cc1cc(-c2nc3ccccc3s2)ccc1N [4-(1,3-Benzothiazol-2-yl)-2-methylaniline] | – | 46.3 | 82 => 38 mM | 4 | RT-QPCR Score (triplicates) (KCC2 mRNA; Mechanistic Compounds): 5; Clomeleon Score (duplicates) ([1]; Mechanistic Compounds): 4; Aggregate Score (KCC2): 13
COc1ccc(C(=O)O[C@H]2CC[C@@]3(C)[C@@H]4CC[C@H]5[C@]6(O)C[C@H](O)[C@@]7(O)[C@@H](CN8C[C@@H](C)CC[C@H]8[C@@]7(C)O)[C@]6(O)C[C@@]53O[C@]24O)cc1OC [veratridine] | 7 | – | – | – | –
CC1(C)CCC[C@]2(C)C3=C(CC[C@@H]12)C(=O)OC3 [confertifoline] | 1 | 56 | 75 => 42 mM | – | RT-QPCR Score (triplicates) (KCC2 mRNA; Natural Compounds): 5; Clomeleon Score (duplicates) ([1]; Natural Compounds): 5; Total Score (KCC2; Natural Compounds): 11
